The source of these data is patent US20220204539A1, “CD73 INHIBITORS” (BioArdis LLC, priority 2019, published 2022).

The target in test [1] is T1, Cell surface CD73 of U87 MG human glioblastoma cells (Homo sapiens, UniProt P21589).
T1 construct: Cell surface CD73 catalyzes the conversion of adenosine monophosphate (AMP) to adenosine and inorganic phosphate; endogenous in cells; host or cells: U87 MG human glioblastoma cells
T1 sequence (P21589 27-549): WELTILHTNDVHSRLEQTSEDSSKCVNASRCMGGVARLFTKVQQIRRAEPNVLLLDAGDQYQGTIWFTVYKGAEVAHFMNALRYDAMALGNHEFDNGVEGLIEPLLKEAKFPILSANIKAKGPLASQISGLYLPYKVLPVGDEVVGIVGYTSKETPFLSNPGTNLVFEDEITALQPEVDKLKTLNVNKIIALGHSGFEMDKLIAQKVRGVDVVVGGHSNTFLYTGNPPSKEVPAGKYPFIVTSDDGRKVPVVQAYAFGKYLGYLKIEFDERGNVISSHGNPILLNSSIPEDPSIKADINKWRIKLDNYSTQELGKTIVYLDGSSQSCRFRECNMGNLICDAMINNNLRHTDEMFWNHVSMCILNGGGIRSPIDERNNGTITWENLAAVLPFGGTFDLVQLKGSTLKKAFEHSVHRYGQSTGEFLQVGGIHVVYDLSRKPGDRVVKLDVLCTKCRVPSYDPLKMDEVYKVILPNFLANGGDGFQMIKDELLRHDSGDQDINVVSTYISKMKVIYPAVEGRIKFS
Description: CD73 Cellular Assay. Type of test: cell-based. The note with it: 5000 cells per well, 30 μM AMP substrate, read-out: Potency (IC50, CD73 cellular assay). The procedure, abridged:
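U87 MG cells (5000/well) preincubated with compound 30 min at 37 °C, 5% CO2, in HEPES-buffered saline pH 7.4 with 0.5% DMSO, then 30 μM AMP (final) for 50 min. Released phosphate in supernatant read colorimetrically at 635 nm; IC50 from four-parameter logistic fit versus cells-plus-substrate and cells-only controls.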

Test [2] has as its target T2, Recombinant Human 5′-Nucleotidase (CD73) (Homo sapiens, UniProt P21589).
T2 construct: CHO derived CD73 (Trp27-Lys547), with a C-terminal 6-His tag; 6-His (C); purchased R&D 5795-EN; host or cells: CHO
T2 sequence (P21589 27-547): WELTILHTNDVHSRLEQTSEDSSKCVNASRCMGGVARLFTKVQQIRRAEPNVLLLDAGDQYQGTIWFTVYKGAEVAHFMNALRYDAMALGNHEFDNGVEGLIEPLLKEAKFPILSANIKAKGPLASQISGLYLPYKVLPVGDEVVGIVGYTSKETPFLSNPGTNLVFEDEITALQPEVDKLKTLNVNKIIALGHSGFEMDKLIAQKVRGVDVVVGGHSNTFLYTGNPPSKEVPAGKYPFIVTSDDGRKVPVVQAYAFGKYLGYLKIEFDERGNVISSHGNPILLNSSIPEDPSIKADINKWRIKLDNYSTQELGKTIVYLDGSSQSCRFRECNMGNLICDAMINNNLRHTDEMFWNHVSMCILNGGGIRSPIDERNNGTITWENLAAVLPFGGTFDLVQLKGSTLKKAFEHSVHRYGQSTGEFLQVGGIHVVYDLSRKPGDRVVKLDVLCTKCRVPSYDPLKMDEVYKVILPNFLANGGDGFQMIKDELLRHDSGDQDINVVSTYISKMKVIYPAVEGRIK
Description: CD73 Enzyme Assay. As to conditions: human CD73 0.5 nM, AMP 30 μM, PiColorLock phosphate detection; read-out: Potency (IC50, CD73 enzyme assay). Type of test: biochemical. The procedure, abridged:
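Human CD73 (CHO-derived Trp27-Lys547, His-tagged; 0.5 nM final) was preincubated with compound for 15 min at 25° C. in Tris pH 7.5 buffer with MgCl2. It then reacted with 30 μM AMP for 20 min at 37° C., and released phosphate was read by malachite green absorbance at 635 nm. IC50 came from four-parameter fits against enzyme and no-enzyme controls.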

Molecules are shown by their SMILES. Bounds are passed on as bounds.

On to `C[C@H](Nc1nc(Cl)nn2c([C@@H]3O[C@H](COP(=O)(O)CP(=O)(O)O)[C@@H](O)[C@H]3O)cnc12)c1ccccc1` [Compound 35, (((((2R,3S,4R,1S)-5-(2-chloro-4-(((S)-1-phenylethyl)amino)imidazo[2,1-f][1,2,4]triazin-7-yl)-3,4-dihydroxytetrahydrofuran-2-yl)methoxy)(hydroxy)phosphoryl)methyl)phosphonic Acid], for which the IC50 (commonly the concentration that gives 50% inhibition) is below 1 nM in test [1] and below 10 nM in test [2].

In the case of `C[C@H](Nc1nc(Cl)nn2c([C@@H]3O[C@H](COP(=O)(O)CP(=O)(O)O)[C@@H](O)[C@H]3O)cnc12)c1cncc(F)c1` [Compound 33, (((((2R,3S,4R,5S)-5-(2-chloro-4-(((S)-1-(5-fluoropyridin-3-yl)ethyl)amino)imidazo[2,1-f][1,2,4]triazin-7-yl)-3,4-dihydroxytetrahydrofuran-2-yl)methoxyxhydroxy)phosphoryl)methyl)phosphonic acid], the values for the half-maximal inhibitory concentration (IC50) in test [1] and in test [2] were 1 to 9.9 nM and below 10 nM, respectively.

In the case of `O=P(O)(O)CP(=O)(O)OC[C@H]1OC(c2cnc3c(N4CCCC4)nc(Cl)nn23)[C@@H](F)[C@@H]1O` (stereo partly drawn) [Compound 73, (((((2R,3R,4S)-5-(2-chloro-4-(pyrrolidin-1-yl)imidazo[2,1-f][1,2,4]triazin-7-yl)-4-fluoro-3-hydroxytetrahydrofuran-2-yl)methoxy)(hydroxy)phosphoryl)methyl)phosphonic Acid], the values for the half-maximal inhibitory concentration (IC50) in test [1] and in test [2] were 1 to 9.9 nM and 10 to 99 nM, respectively.

On to `O=P(O)(O)CP(=O)(O)OC[C@H]1O[C@@H](c2cnc3c(NC4CCC(F)(F)CC4)nc(Cl)nn23)[C@H](O)[C@@H]1O` [Compound 48, [({[(2R,3S,4R,5S)-5-{2-chloro-4-[(4,4-difluorocyclohexyl)amino]imidazo[2,1-f][1,2,4]triazin-7-yl}-3,4-dihydroxyoxolan-2-yl]methoxy}(hydroxy)phosphoryl)methyl]phosphonic Acid], for which the half-maximal inhibitory concentration (IC50) in test [1] was 1 to 9.9 nM; in test [2] it was below 10 nM.

`O=P(O)(O)CP(=O)(O)OC[C@H]1O[C@@H](c2cnc3c(N4Cc5ccccc5C4)nc(Cl)nn23)[C@H](O)[C@@H]1O` [Compound 24, [({[(2R,3S,4R,5S)-5-[2-chloro-4-(1,3-dihydroisoindol-2-yl)imidazo[2,1-f][1,2,4]triazin-7-yl]-3,4-dihydroxyoxolan-2-yl]methoxy}(hydroxy)phosphoryl)methyl]phosphonic acid]: the IC50 in test [1] was below 1 nM; in test [2], below 10 nM.

Regarding `O=P(O)(O)CP(=O)(O)OC[C@H]1O[C@@H](c2cnc3c(N[C@@H]4CCc5ccccc54)nc(Cl)nn23)[C@H](O)[C@@H]1O` [Compound 28, (((((2R,3S,4R,1S)-5-(2-chloro-4-(((R)-2,3-dihydro-1H-inden-1-yl)amino)imidazo[2,1-f][1,2,4]triazin-7-yl)-3,4-dihydroxytetrahydrofuran-2-yl)methoxy)(hydroxy)phosphoryl)methyl)phosphonic Acid], the values for the IC50 in test [1] and in test [2] were below 1 nM and below 10 nM, respectively.

As for `O=P(O)(O)CP(=O)(O)OC[C@H]1O[C@@H](c2cnc3c(NCc4ccccc4)ncnn23)[C@H](O)[C@@H]1O` [Compound 2, (((((2R,3S,4R,1S)-5-(4-(benzylamino)imidazo[2,1-f][1,2,4]triazin-7-yl)-3,4-dihydroxytetrahydrofuran-2-yl)methoxy)(hydroxy)phosphoryl)methyl)phosphonic Acid], the half-maximal inhibitory concentration (IC50) lay within 1 to 9.9 nM in test [1] and 10 to 99 nM in test [2].

Take `NC(=O)c1nc(NC2CCCC2)c2ncc([C@@H]3O[C@H](COP(=O)(O)CP(=O)(O)O)[C@@H](O)[C@H]3O)n2n1` [Compound 66, (((((2R,3S,4R,5S)-5-(2-carbamoyl-4-(cyclopentylamino)imidazo[2,1-f][1,2,4]triazin-7-yl)-3,4-dihydroxytetrahydrofuran-2-yl)methoxy)(hydroxy)phosphoryl)methyl)phosphonic Acid]: the IC50 in test [1] was below 1 nM; in test [2] it was below 10 nM.

With `CO[C@H]1CC[C@H](Nc2nc(Cl)nn3c([C@@H]4O[C@H](COP(=O)(O)CP(=O)(O)O)[C@@H](O)[C@H]4O)cnc23)CC1` [Compound 17, (((((2R,3S,4R,1S)-5-(2-chloro-4-(((1r,4S)-4-methoxycyclohexyl)amino)imidazo[2,1-f][1,2,4]triazin-7-yl)-3,4-dihydroxytetrahydrofuran-2-yl)methoxy)(hydroxy)phosphoryl)methyl)phosphonic acid], the figures for the half-inhibitory concentration (IC50) in test [1] and in test [2] were below 1 nM and below 10 nM, respectively.

Take `O=P(O)(O)CP(=O)(O)OC[C@H]1O[C@@H](c2cnc3c(N4CCCC45CCC5)nc(Cl)nn23)[C@H](O)[C@@H]1O` [Compound 41, [({[(2R,3S,4R,5S)-5-(4-{5-azaspiro[3.4]octan-5-yl}-2-chloroimidazo[2,1-f][1,2,4]triazin-7-yl)-3,4-dihydroxyoxolan-2-yl]methoxy}(hydroxy)phosphoryl)methyl]phosphonic Acid]: the IC50 in test [1] was below 1 nM; in test [2], below 10 nM.

Turning to `O=P(O)(O)CP(=O)(O)OC[C@H]1O[C@@H](c2cnc3c(NCC4CCOC4)nc(Cl)nn23)[C@H](O)[C@@H]1O` (stereo partly drawn) [Compound 12, (((((2R,3S,4R,1S)-5-(2-chloro-4-(((tetrahydrofuran-3-yl)methyl)amino)imidazo[2,1-f][1,2,4]triazin-7-yl)-3,4-dihydroxytetrahydrofuran-2-yl)methoxy)(hydroxy)phosphoryl)methyl) phosphonic Acid], the IC50 is below 1 nM in test [1] and below 10 nM in test [2].

Turning to `O=P(O)(O)CP(=O)(O)OC[C@H]1O[C@@H](c2cnc3c(N4CCC[C@H]4c4ccccc4F)nc(Cl)nn23)[C@H](O)[C@@H]1O` [Compound 55, (((((2R,3S,4R,1S)-5-(2-chloro-4-((S)-2-(2-fluorophenyl)pyrrolidin-1-yl)imidazo[2,1-f][1,2,4]triazin-7-yl)-3,4-dihydroxytetrahydrofuran-2-yl)methoxy)(hydroxy)phosphoryl)methyl)phosphonic Acid], the IC50 in test [1] is below 1 nM; in test [2], below 10 nM.

Take `O=P(O)(O)CP(=O)(O)OC[C@H]1O[C@@H](c2cnc3c(NC4CCc5ccccc54)nc(Cl)nn23)[C@H](O)[C@@H]1O` (stereo partly drawn) [Compound 9, (((((2R,3S,4R,1S)-5-(2-chloro-4-((2,3-dihydro-1H-inden-1-yl)amino)imidazo[2,1-f][1,2,4]triazin-7-yl)-3,4-dihydroxytetrahydrofuran-2-yl)methoxy)(hydroxy)phosphoryl)methy)phosphonic acid]: the IC50 is below 1 nM in test [1] and below 10 nM in test [2].

For `O=P(O)(O)CP(=O)(O)OC[C@H]1O[C@@H](c2cnc3c(N4CCCCC4)nc(Cl)nn23)[C@H](O)[C@@H]1O` [Compound 43, (((((2R,3S,4R,1S)-5-(2-chloro-4-(piperidin-1-yl)imidazo[2,1-f][1,2,4]triazin-7-yl)-3,4-dihydroxytetrahydrofuran-2-yl)methoxy)(hydroxy)phosphoryl)methyl)phosphonic Acid], the IC50 in test [1] was below 1 nM; in test [2], below 10 nM.

Regarding `O=P(O)(O)CP(=O)(O)OC[C@H]1O[C@@H](c2cnc3c(N[C@@H]4CCOC4)nc(Cl)nn23)[C@H](O)[C@@H]1O` [Compound 22, (((((2R,3S,4R,1S)-5-(2-chloro-4-(((R)-tetrahydrofuran-3-yl)amino)imidazo[2,1-f][1,2,4]triazin-7-yl)-3,4-dihydroxytetrahydrofuran-2-yl)methoxy)(hydroxy)phosphoryl)methyl)phosphonic Acid], the half-inhibitory concentration (IC50) in test [1] is below 1 nM; in test [2], below 10 nM.
